We go through two substances from article PMC11408249, “Non-invasive in vivo imaging of changes in Collagen III turnover in myocardial fibrosis” (npj Imaging, 2024).

The target in this assay is T1, COL3 (Homo sapiens, UniProt P02461).
T1 sequence (P02461 154-1221 limits assumed): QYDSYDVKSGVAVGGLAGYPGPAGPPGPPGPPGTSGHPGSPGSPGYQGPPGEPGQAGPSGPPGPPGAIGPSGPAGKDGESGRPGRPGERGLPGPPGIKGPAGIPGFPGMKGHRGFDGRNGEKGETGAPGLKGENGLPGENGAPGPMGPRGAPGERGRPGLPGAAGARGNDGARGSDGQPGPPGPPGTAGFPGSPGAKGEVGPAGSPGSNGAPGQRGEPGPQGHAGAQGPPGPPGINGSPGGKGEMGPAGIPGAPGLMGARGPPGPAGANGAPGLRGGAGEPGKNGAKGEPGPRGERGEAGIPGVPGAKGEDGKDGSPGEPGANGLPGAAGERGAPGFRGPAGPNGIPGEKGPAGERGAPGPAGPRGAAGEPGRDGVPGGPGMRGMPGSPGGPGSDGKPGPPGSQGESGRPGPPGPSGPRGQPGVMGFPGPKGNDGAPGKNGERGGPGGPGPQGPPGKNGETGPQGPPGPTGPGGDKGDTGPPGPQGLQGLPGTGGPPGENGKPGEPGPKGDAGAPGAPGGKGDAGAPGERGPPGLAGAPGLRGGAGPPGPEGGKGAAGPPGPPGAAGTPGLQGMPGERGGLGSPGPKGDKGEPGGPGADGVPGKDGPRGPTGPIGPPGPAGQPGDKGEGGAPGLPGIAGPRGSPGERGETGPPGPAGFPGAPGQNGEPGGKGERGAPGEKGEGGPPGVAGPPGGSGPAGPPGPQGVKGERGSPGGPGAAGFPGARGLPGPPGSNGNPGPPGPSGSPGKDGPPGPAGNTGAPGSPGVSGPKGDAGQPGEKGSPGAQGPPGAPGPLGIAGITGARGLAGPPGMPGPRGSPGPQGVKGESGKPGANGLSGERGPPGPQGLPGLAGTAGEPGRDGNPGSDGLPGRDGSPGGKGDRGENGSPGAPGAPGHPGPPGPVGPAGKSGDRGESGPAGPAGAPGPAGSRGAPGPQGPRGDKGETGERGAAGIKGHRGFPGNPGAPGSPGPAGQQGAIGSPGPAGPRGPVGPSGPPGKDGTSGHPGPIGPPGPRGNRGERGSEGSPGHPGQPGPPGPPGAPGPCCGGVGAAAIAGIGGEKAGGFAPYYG
Description: Competition assay: Gd(III) tetrameric probe displaces Eu(III) monomeric probe from COL3. It counts as binding. To be noted: 5 µM Eu(III) monomeric probe, Gd tetrameric probe 0.01–200 µM, 1 h room temperature. How it is done: The binding interactions of the tetrameric Gd(III)-labelled probes with COL3 were studied by a competition assay, as Gd(III) is not suitable for TRF based assays. In competition assays, the binding of the Gd(III)-labelled tetrameric probe of interest to the target protein was measured by competition with the corresponding Eu(III)-labelled monomeric probe. Specifically, a row of wells was coated with collagen (COL3) and added with a constant amount of the Eu(III)-labelled probe of interest (e.g. Eu-DOTAMA-CBP1). Wells were then added and incubated with increasing concentrations of the corresponding tetrameric Gd(III)-labelled probes (e.g. [Gd-DOTAMA]4-CBP1). Displacement curves were then obtained by plotting the residual Eu(III) TRF against the concentration of the Gd(III)-labelled probe. Briefly, eight solutions were made containing a fixed concentration of Eu(III)-monomeric probe (5 µM) and increasing concentrations of the Gd-tetrameric probe (0.01–200 µM). Plates pre-coated with COL3 were simultaneously incubated with both compounds for 1 h at room temperature (triplicate wells per plate and 3 independent plates). After the incubation, the Eu(III) TRF assay protocol including the acid extraction and enhancement solution steps were used to measure the binding of the monomeric probe in the presence of the competing tetrameric probe, as previously described. […]

With “Ac-C-RDKKVAEQS [[Gd-DOTAMA]4-SccCBP1, scrambled tetrameric Gd probe (Ac-C-…), negative control]”, the “displacement of the monomeric Eu(III)-labelled counterpart from COL3 (in words)” value was “cannot”.
Then “Ac-C-TEFPLRMRDWLKN [[Gd-DOTAMA]4-CBP2, tetrameric probe: tri-lysine scaffold bearing four Gd-DOTAMA units conjugated at the N-terminus of CBP2]”, with “can be observed only at very high concentrations”.
